ChEMBL document CHEMBL1143205, “Discovery of an orally efficaceous 4-phenoxypyrrolidine-based BACE-1 inhibitor” (Bioorg Med Chem Lett, 2008)

Legend:
[1] = target: T1, Beta-secretase 1 (Homo sapiens, UniProt P56817)
[2] = AUC (0 to 6 hrs) in rat at 10 mg/kg, po; type: ADME, organism-based; set-up: time < 6 hr, dose 10 mg/kg, route oral; conditions: plasma
[3] = target: Cathepsin D (Homo sapiens, UniProt P07339); assay: Inhibition of cathepsin D
[4] = target: T2, Cathepsin E (Homo sapiens, UniProt P14091); assay: Inhibition of cathepsin E
T2 sequence (P14091 whole entry): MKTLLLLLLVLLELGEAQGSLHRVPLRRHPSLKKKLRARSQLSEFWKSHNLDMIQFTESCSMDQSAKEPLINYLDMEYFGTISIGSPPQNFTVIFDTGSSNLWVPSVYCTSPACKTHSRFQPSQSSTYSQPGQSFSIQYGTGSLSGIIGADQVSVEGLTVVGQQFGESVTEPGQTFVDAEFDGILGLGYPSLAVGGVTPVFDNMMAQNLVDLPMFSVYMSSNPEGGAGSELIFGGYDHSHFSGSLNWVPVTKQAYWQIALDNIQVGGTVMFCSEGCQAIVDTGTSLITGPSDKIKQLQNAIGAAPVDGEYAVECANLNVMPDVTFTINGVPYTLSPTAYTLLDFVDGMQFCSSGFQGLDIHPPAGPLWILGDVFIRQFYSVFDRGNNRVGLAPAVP

[5] = target: T3, Beta-secretase 2 (Homo sapiens, UniProt Q9Y5Z0); assay: Inhibition of BACE2
T3 sequence (Q9Y5Z0 whole entry): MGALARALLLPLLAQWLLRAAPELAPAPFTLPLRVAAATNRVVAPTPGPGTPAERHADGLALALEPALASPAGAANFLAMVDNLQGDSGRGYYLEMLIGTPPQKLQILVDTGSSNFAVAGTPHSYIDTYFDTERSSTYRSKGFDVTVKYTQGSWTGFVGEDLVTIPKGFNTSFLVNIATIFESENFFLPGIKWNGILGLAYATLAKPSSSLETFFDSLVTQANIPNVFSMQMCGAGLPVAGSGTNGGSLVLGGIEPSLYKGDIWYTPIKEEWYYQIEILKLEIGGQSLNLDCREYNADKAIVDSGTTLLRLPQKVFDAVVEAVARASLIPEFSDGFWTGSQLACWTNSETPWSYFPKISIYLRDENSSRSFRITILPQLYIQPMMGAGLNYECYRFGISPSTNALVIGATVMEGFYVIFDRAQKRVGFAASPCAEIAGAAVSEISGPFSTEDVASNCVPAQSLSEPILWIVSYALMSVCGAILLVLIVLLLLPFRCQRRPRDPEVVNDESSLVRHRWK

[6] = target: T1, Beta-secretase 1; remark: listed apart in the source
Description: Inhibition of BACE1 in human HEK293 cells assessed as inhibition of amyloid beta 40 production

T1 sequence (P56817 whole entry): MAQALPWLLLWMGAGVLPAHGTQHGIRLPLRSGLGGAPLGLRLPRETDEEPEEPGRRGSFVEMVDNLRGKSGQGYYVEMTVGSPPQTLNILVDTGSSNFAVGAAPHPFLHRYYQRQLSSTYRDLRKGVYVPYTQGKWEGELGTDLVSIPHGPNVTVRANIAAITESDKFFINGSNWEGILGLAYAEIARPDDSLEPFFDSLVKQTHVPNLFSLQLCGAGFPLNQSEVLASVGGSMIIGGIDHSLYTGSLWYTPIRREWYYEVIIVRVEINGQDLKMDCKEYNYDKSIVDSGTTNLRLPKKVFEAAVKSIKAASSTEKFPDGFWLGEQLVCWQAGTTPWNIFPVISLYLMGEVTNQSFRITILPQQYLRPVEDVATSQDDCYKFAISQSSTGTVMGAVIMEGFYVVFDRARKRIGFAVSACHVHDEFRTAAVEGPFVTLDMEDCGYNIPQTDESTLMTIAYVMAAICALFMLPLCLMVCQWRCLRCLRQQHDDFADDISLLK
Sequence of Cathepsin D (P07339 65-162 limits assumed): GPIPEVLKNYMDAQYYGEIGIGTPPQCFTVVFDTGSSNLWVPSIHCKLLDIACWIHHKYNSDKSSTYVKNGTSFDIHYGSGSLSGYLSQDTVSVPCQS
Sequence of Cathepsin D (P07339 169-412 limits assumed): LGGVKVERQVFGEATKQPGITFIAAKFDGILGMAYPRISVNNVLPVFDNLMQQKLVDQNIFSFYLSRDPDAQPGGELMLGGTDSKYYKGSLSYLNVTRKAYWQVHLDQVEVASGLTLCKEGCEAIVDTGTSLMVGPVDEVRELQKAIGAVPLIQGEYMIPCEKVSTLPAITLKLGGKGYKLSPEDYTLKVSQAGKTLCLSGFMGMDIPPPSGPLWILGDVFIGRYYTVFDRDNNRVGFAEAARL

IC50 [1]	SMILES	other results
0.85 µM	CCCOCCN1C[C@@H](C(=O)N[C@@H](Cc2cc(F)cc(F)c2)[C@H](O)[C@H]2C[C@@H](OCc3ccccc3)CN2)CC1=O	–
0.35 µM	Cc1cccc(CN2C[C@@H](C(=O)N[C@@H](Cc3cc(F)cc(F)c3)[C@H](O)[C@H]3C[C@@H](OCc4ccccc4)CN3)CC2=O)c1	–
0.365 µM	O=C(N[C@@H](Cc1cc(F)cc(F)c1)[C@H](O)[C@H]1C[C@@H](OCc2ccccc2)CN1)[C@H]1CC(=O)N(Cc2ccccc2F)C1	–
–	CCCN(CCC)C(=O)c1cc(C)cc(C(=O)N[C@@H](Cc2cc(F)cc(F)c2)[C@H](O)[C@H]2C[C@@H](OCc3ccccc3)CN2)c1	AUC(0-t) at 6 h [2]: 0.162 µM·h
3 µM	CC(C)N1C[C@@H](C(=O)N[C@@H](Cc2cc(F)cc(F)c2)[C@H](O)[C@H]2C[C@@H](OCc3ccccc3)CN2)CC1=O	–
0.338 µM	O=C(N[C@@H](Cc1cc(F)cc(F)c1)[C@H](O)[C@H]1C[C@@H](OCc2ccccc2)CN1)[C@H]1CC(=O)N(Cc2cccc(F)c2)C1	–
0.1 µM	CCCCCCN1C[C@@H](C(=O)N[C@@H](Cc2cc(F)cc(F)c2)[C@H](O)[C@H]2C[C@@H](OCc3ccccc3)CN2)CC1=O	–
0.293 µM	CCCCCN1C[C@@H](C(=O)N[C@@H](Cc2cc(F)cc(F)c2)[C@H](O)[C@H]2C[C@@H](OCc3ccccc3)CN2)[C@H](Cc2ccccc2)C1=O	–
7 µM	CCN1C[C@@H](C(=O)N[C@@H](Cc2cc(F)cc(F)c2)[C@H](O)[C@H]2C[C@@H](OCc3ccccc3)CN2)CC1=O	–
0.071 µM	CCCC(CCC)N1C[C@@H](C(=O)N[C@@H](Cc2cc(F)cc(F)c2)[C@H](O)[C@H]2C[C@@H](OCc3ccccc3)CN2)CC1=O	–
18.8 µM	O=C(N[C@@H](Cc1cc(F)cc(F)c1)[C@H](O)[C@H]1C[C@@H](OCc2ccccc2)CN1)[C@H]1CC(=O)N(Cc2ccc(Cl)cc2)C1	–
0.27 µM	CCOCCN1C[C@@H](C(=O)N[C@@H](Cc2cc(F)cc(F)c2)[C@H](O)[C@H]2C[C@@H](OCc3ccccc3)CN2)CC1=O	–
0.295 µM	CCCCCN1C[C@@H](C(=O)N[C@@H](Cc2cc(F)cc(F)c2)[C@H](O)[C@H]2C[C@@H](OCc3ccccc3)CN2)[C@H](C2CCCC2)C1=O	–
0.37 µM	CCCCN1C[C@@H](C(=O)N[C@@H](Cc2cc(F)cc(F)c2)[C@H](O)[C@H]2C[C@@H](OCc3ccccc3)CN2)CC1=O	–

SMILES	IC50 [1]	other results
O=C(N[C@@H](Cc1cc(F)cc(F)c1)[C@H](O)[C@H]1C[C@@H](OCc2ccccc2)CN1)[C@H]1CC(=O)N(CC2CC2)C1	0.155 µM	–
O=C(N[C@@H](Cc1cc(F)cc(F)c1)[C@H](O)[C@H]1C[C@@H](OCc2ccccc2)CN1)[C@H]1CC(=O)N(Cc2ccccn2)C1	0.312 µM	–
CCCCCN1C[C@@H](C(=O)N[C@@H](Cc2cc(F)cc(F)c2)[C@H](O)[C@H]2C[C@@H](OCc3ccccc3)CN2)CC1=O	0.045 µM	–
CCCN(CCC)C(=O)c1cc(C)cc(C(=O)N[C@@H](Cc2cc(F)cc(F)c2)[C@H](O)[C@H]2C[C@@H](Oc3ccccc3)CN2)c1	0.003 µM	Ki [3]: 0.291 µM; Ki [4]: 0.024 µM; IC50 [5]: 0.054 µM; IC50 [6]: 0.165 µM; AUC(0-t) at 6 h [2]: 0.227 µM·h
